Measurements taken from patent publication US8343458B2, “Probes for in vivo targeting of active cysteine proteases” (The Board of Trustees of the Leland Stanford Junior …, priority 2008, dated 2013).

System: cathepsins B and L
Experiment: Labeling of intact tumor cells (SDS-PAGE, gel scan)
Assay type: cell-based, mouse (C2C12/Ras), human (MDA-MB-435)
Conditions: C2C12/Ras and MDA-MB-435 cells, 555 KBq probe in culture medium for 2 h
Text: FIG. 2 is a series of figures which, taken together, show the structure and function of representative in vivo probes. FIG. 2A is a schematic drawing of a chelator—conjugated probe, illustrating several component moieties. FIGS. 2B and 2C are gels showing expression and activity of enzyme targets of such probe, with a radionuclide label attached to the illustrated structure, showing the expression and activity of CB in a mouse myoblast cell line C2C12Ras and human breast cancer cell line MDA-MB-435. […] Cells were pretreated with JPM-OEt (50 μM) (+) or with control DMSO (0.1%) (−) for 2 h and labeled by addition of ^64Cu-Z-FK(DOTA)-AOMK (555 KBq, 15 μCi) to culture medium for 2 h. Cells were collected, lysed and analyzed after SDS-PAGE. The labeled proteases were visualized by scanning of the gel with a Typhoon 9410 imager.
Before applying the radiolabel probe in vivo we first tested the ability of the probe to label multiple tumor cell lines grown in vitro. We initially examined the labeling of the human breast cancer cell line MBA-MB-435 and a mouse myoblastoma cell line that had been transformed by overexpression of the ras oncogene (C2C12/Ras). Both of these cell lines were used for in vivo imaging studies with the NIRF-labeled cysteine cathepsin probes. To confirm earlier studies of these cells using the NIRF probes we labeled them with general Cy5-labeled probe GB123 (FIG. 1C). […] Labeling of the same cells with ^64Cu-Z-FK(DOTA)-AOMK confirmed that the DOTA produced a similar labeling pattern to that observed for the NIRF probe GB123.
C2C12/Ras and MDA-MB-435 cells (0.25 M each well) were seeded in a six-well plate one day before the study. Cells were pretreated with the general papain family protease inhibitor JPM-OEt (50 μM^28) or with control DMSO (0.1%) for 1 h and labeled by addition of ^64Cu-Z-FK(DOTA)-AOMK (555 KBq, 15 μCi) to culture medium for 2 h. Cells was then washed with PBS and lysed. Equal amounts of protein per lane were separated by 12% SDS-PAGE. […] The labeled bands were quantified with ImageJ 1.36b (public domain software from National Institute of Health).

Structure (SMILES): Cc1cccc(C)c1C(=O)OCC(=O)[C@H](CCCCNC(=O)CN1CCN(CC(=O)[O-])CCN(CC(=O)O)CCN(CC(=O)[O-])CC1)NC(=O)[C@H](Cc1ccccc1)NC(=O)OCc1ccccc1.[64Cu+2] [^64Cu-Z-FK(DOTA)-AOMK]
- Labeling of active cathepsins in intact cells: efficiently modifies active cathepsins B and L
